Data taken from patent US9745355B2, “Binding-site modified lectins and uses thereof” (SmartCells, Inc., priority 2009, dated 2017).

System: formaldehyde-stabilized rabbit erythrocytes
Assay: MAC assay (minimum agglutinating concentration)
Assay type: cell-based
Conditions: 2% v/v suspension of formaldehyde-stabilized rabbit erythrocytes
From the text: Enzymol. 83:368-373, 1982. Formaldehyde-treated rabbit erythrocytes, prepared by published procedures (Nowak et al., Biochim. Biophys. […] The MAC was defined as the lectin protein concentration (exclusive of attached chemical compounds) in the highest dilution showing visible agglutination. […] An aliquot of the formaldehyde-treated Rabbit erythrocytes was then pipetted into each well. At low lectin concentrations, there was insufficient lectin to form a network of crosslinked cells and the cells dropped to the bottom of the V-well forming what looks like a dark pin-point circle at the bottom of the plate when viewed from above. However, once the lectin concentration reached the minimum agglutination concentration (MAC), the lectin molecules began crosslinking the saccharide receptors on the erythrocyte surfaces, resulting in a network that cannot settle to the bottom of the V-well forming what looks like a large, opaque, diffuse circle when viewed from above. The lowest concentration that produces the large diffuse circle is the MAC value for a particular formulation.

## concanavalin A [Umodified]
  MAC: <1 µg/mL
